Data on one compound can be found in PMC7096398, “Oxytocin Receptors Regulate Social Preference in Zebrafish” (Scientific Reports, 2020).

Entries after “also recorded” stand apart in the source; their conditions may differ.

For one data set, the system named is adult zebrafish. Description: Shoaling test in adult zebrafish. The format is in vivo, zebrafish (Danio rerio). As to the method:
Adult and larval behavioural testing was performed between 9 AM and 4 PM. All fish were fed prior to and after experiments, and larvae were also given an additional feed at midday. Adult fish were of a 1:1 sex ratio, and focal fish and stimulus fish were size-matched. Adult fish and shoals were filmed using a web camera and Debut Video Capture Software (NCH Software, Greenwood Village, USA), and videos were analysed using EthoVision version 11 (Noldus, Wageningen, the Netherlands).
The shoaling test was performed to examine the effects of L-368,899 on social group behaviour, a test widely used to assess shoaling sensitivity to various drugs and experimental settings[75],[76].
The experimental setup comprised a 1.8 L trapezoidal tank (height 16 cm × length at the top 26 cm × length at the bottom 23 cm × width 6 cm, Aquaneering, San Diego, USA). Fifty-six zebrafish were randomly grouped into shoals of four (two males and two females) three days prior to the experiment. […] On day four all shoal members were weighed and injected with either fish Ringer’s (n = 6 shoals) or L-368,899 (n = 7 shoals), using the same procedure described above. Shoals were returned to their respective holding tanks for one hour to recover, and then gently transferred to test tanks, in which they were filmed for 15 minutes.
All data for the social preference and novel tank diving experiments in adults were extracted as processed means per minute from EthoVision. For the shoaling experiments, raw data was exported from EthoVision, and then post-processed by an in-house script written in Python 3.4, in order to compute IFD, NND, and FND as described elsewhere. For timelines, repeated measures analysis of variance (RM-ANOVA) was used. For pairwise comparisons of total means between groups, Student’s T-tests were used.

The subject of the next data set is larval zebrafish. The data set can be described thus: Social preference in larval zebrafish. The format is in vivo, zebrafish (Danio rerio). The note with it: 100 µM immersion 1 h. As to the method:
The social preference test for young zebrafish has been described elsewhere. In brief, experiments were performed in custom-built arenas; see Fig. 5, consisting of laser-cut 5 mm high white acrylic walls placed on transparent flooring with transparent acrylic partitions. The dimensions of each arena were 40 × 32 mm, and the chambers containing stimulus fish was 15 × 15 mm. The areas in front of these stimulus compartments were designated Social Area (where the stimulus was placed) or Non-Social Area (where the stimulus was not placed). The water depth was 5 mm, and water parameters matched the ones housing water parameters. Nine arenas were placed adjacent to each other on an infrared (IR) back-light diffusing both IR and white light (Noldus, Wageningen, the Netherlands), with a digital monochrome high resolution GigE camera overhead (Noldus, Wageningen, the Netherlands), and surrounded by an opaque enclosure.
A 10 mM stock solution was prepared by dissolving L-368,899 in H2O (Milli-Q water purification system), and subsequently stored at −20 °C. The stock solution was diluted to a working concentration of 100 µM by addition of water adjusted to the same parameters kept in the fish facility. Larvae were immersed in 100 µM L-368,899 solution (treated fish) or in water matching housing conditions (control fish) for 1 hour prior to testing. Focal larvae were then transferred to test arenas and filmed for 15 minutes, with no stimulus present (acclimation period; AC). Following this, one stimulus larva was placed in a randomly selected stimulus chamber of each arena, and focal larvae were filmed for another 15 minutes (social cue period; SC). A total of 137 vehicle-treated fish and 109 antagonist-treated fish were tested, and after using the exclusion criteria described below, 87 vehicle-treated fish and 77 antagonist-treated fish were included in the statistical analyses.
Larval results were analysed using a social preference index (SPI). SPI was calculated by subtracting the time a focal larva spent in the Non-Social Area from the time it spent in the Social Area, and then dividing the result by the total time the larva was tracked in the entire arena. […] SPI was calculated for each focal larva for the AC period and the SC period separately. […] All data was analysed using paired T-tests to investigate change within the control and treated groups, and Student’s T-tests to investigate difference between the groups for each phase.

For data set [1] the following is noted: cited from earlier work.
For another data set, the system named is rodents. The note with it: cited from earlier work. As to the method: Intraperitoneal injections were conducted using a 1 mL U-100 BD MicroFine™ Insulin Syringe (Becton Dickinson France S.A.S., France). Post injection, animals were placed into their holding tanks for one hour to recover. […] Following this, focal fish were individually placed in the middle of the test tank and left ...

Another data set has as its system OT receptor. The note with it: cited from earlier work. The source says:
Intriguingly, the non-peptidergic OT receptor antagonist L-368,8 ...

Regarding `Cc1ccccc1N1CCN(S(=O)(=O)C[C@]23CC[C@H](C[C@@H]2NC(=O)[C@@H](N)CCS(C)(=O)=O)C3(C)C)CC1` [L-368,899], the “Shoaling parameters vs vehicle, outlier vehicle shoal included” value in the data set on adult zebrafish (IFD, NND, FND, including outlier shoal) was “no significant differences”. For the same compound, the “Social behaviour: Nearest neighbour distance” value in the data set on adult zebrafish (adult shoaling, shoals of four, 100 µg per gram fish i.p., 1 h before 15 min test, mean ± SEM, n = 7 shoals, vehicle 3.3 ± 0.2) was found to be 3.7 ± 0.1 cm. Besides, the “Social behaviour: Interfish distance” value in the data set on adult zebrafish (adult shoaling, shoals of four, 100 µg per gram fish i.p., 1 h before 15 min test, mean ± SEM, n = 7 shoals, vehicle 5.9 ± 0.3) was found to be 6.7 ± 0.2 cm. The “Social behaviour: Furthest neighbour distance” value in the data set with adult zebrafish (adult shoaling, shoals of four, 100 µg per gram fish i.p., 1 h before 15 min test, mean ± SEM, n = 7 shoals, vehicle 8.7 ± 0.5) amounted to 9.8 ± 0.2 cm. Besides, in the data set with adult zebrafish (adult shoaling, shoals of four, 100 µg per gram fish i.p., 1 h before 15 min test, mean ± SEM, vehicle 3.6 ± 0.2, p = 0.30), the “Locomotion: Velocity” value was found to be 3.2 ± 0.3 cm/s. Moreover, the “Locomotion: Distance” value in the data set on adult zebrafish (adult shoaling, shoals of four, 100 µg per gram fish i.p., 1 h before 15 min test, mean ± SEM, vehicle 207 ± 15, p = 0.37) is 186 ± 17 cm/min. In addition, the “Shoaling, in words” value with adult zebrafish (adult zebrafish) is “potentially also shoaling behaviour; also recorded: tentative and small effect”. Moreover, the “Activity parameters vs vehicle, shoaling test” value with adult zebrafish (average distance p = 0.37, average velocity p = 0.30) is given as “no significant differences”. For the same compound, the “Inter-fish distance (IFD) vs vehicle, outlier excluded” value with adult zebrafish (t(10) = 2.276, p = 0.046) is recorded as “significantly more spread out”. Also, the “Nearest neighbour distance (NND) vs vehicle, outlier excluded” value with adult zebrafish (t(10) = 2.324, p = 0.042) is listed as “significantly more spread out”. The “Social preference in larvae, in words” value with larval zebrafish was “decreased social preference”. Moreover, in the data set on larval zebrafish (t(76) = 0.177, p = 0.86, vehicle larvae significantly increased, p = 0.039), the “Increase in SPI from acclimation to social cue” value is given as “not present”. Also, in the data set with larval zebrafish (t(162) = 1,98, p = 0.049), the “SPI during the social cue period vs vehicle” value is reported as “significantly lower SPI”. For the same compound, the “Social Preference Index (AC)” value in the data set on larval zebrafish (3-week-old larvae, acclimation phase, mean ± SEM, n = 77, vehicle 0.06 ± 0.04) was 0.00 ± 0.05. In addition, in the data set on larval zebrafish (3-week-old larvae, acclimation phase, mean ± SEM, n = 77, vehicle 0.28 ± 0.01), the “Locomotion (AC): Velocity” value turned out to be 0.30 ± 0.02 cm/s. In addition, the “Locomotion (AC): Distance” value with larval zebrafish (3-week-old larvae, acclimation phase, mean ± SEM, n = 77, vehicle 249 ± 12) came out at 265 ± 14 cm/min. For the same compound, in the data set with larval zebrafish (3-week-old larvae, social cue phase, mean ± SEM, n = 77, vehicle 0.18 ± 0.05), the “Social Preference Index (SC)” value was 0.01 ± 0.06. The half-life entry in data set [1] was “about 2 hours”. The “Behavioural effects one hour after treatment” value with rodents was “robust behavioural effects”. For the same compound, the “Inhibition of the OT receptor in mammals” value with OT receptor is reported as “specifically inhibit the mammalian OT receptor”.
